# Laboratory results published in patent publication US20250195530A1, “POLQ INHIBITORS” (ASTRAZENECA AB, priority 2022, published 2025).
# Read-outs that look alike come from different tables or passages of the source.
# System: DLD-1 BRCA2−/− cells
# Experiment: Homologous recombination synthetic lethal inhibition of proliferation, DLD-1 BRCA2-/- (Cell Titre Glo 3D)
# Assay type: cell-based
# Conditions: for IC50: Homo sapiens
# Outline: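 Isogenic DLD-1 pair; BRCA2−/− seeded 3,000 cells/mL and read day 12, wt seeded 1,500 cells/mL and read day 7. 10-pt titration (top 10 μM, 3-fold), re-fed with compound day 6, 37 °C/5% CO2. CTG 3D endpoint; IC50 at 50% signal loss.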
# [1] = DLD-1, first proliferation column, DLD-1 BRCA2-/-, read-out: POLQ PD Prolif Lumin (converted)
# [2] = DLD-1, DLD-1 BRCA2 −/− cells, mean, read-out: POLQ PD Prolif Lumin BRCA2 −/− mean pIC50 (converted)
# [3] = DLD-1, first proliferation column (c5), DLD-1 BRCA2-/-, read-out: POLQ PD Prolif Lumin (converted)
# [4] = DLD-1, DLD-1 BRCA2 −/−, mean, read-out: POLQ PD Prolif Lumin BRCA2 −/− mean pIC50 (converted)
# [5] = DLD-1, proliferation, luminescence, taken as DLD-1 BRCA2-/-, read-out: POLQ PD Prolif Lumin (converted)
# [6] = DLD-1, DLD-1 BRCA2-/- proliferation, column head only partly shown, read-out: POLQ PD Prolif Lumin (converted)
# [7] = DLD-1, first proliferation column (c5), taken as DLD-1 BRCA2-/-, read-out: POLQ PD Prolif Lumin (converted)
structure (smiles),measurement,setting,value
"Cc1ccnc(Cn2c(-c3ccc(OCC(=O)N(C)CC4(O)CC4)cc3Cl)nc3c(OC4(C)CC4)ncnc32)c1 [Example T583, 2-(3-chloro-4-(6-(1-methylcyclopropoxy)-9-((4-methylpyridin-2-yl)methyl)-9H-purin-8-yl)phenoxy)-N-((1-hydroxycyclopropyl)methyl)-N-methylacetamide]",IC50,[1],2 µM
"Cc1cc(Cn2c(-c3ccc(CC(N)=O)cc3Cl)nc3c(OC4(C)CC4)ncnc32)n(C)n1 [Example T32, 2-(3-chloro-4-(9-((1,3-dimethyl-1H-pyrazol-5-yl)methyl)-6-(1-methylcyclopropoxy)-9H-purin-8-yl)phenyl)acetamide]",IC50,[2],2 µM
"CNC(=O)COc1ccc(-c2nc3c(OC4(C)CC4)ncnc3n2CCc2ccccc2)c(Cl)c1 [Example T195, 2-(3-chloro-4-(6-(1-methylcyclopropoxy)-9-phenethyl-9H-purin-8-yl)phenoxy)-N-methylacetamide]",IC50,[3],1.26 µM
"Cc1nnc(Cn2c(-c3ccc(CC(N)=O)cc3Cl)nc3c(OC4(C)CC4)ncnc32)o1 [Example T2, 2-(3-chloro-4-(9-((5-methyl-1,3,4-oxadiazol-2-yl)methyl)-6-(1-methylcyclopropoxy)-9H-purin-8-yl)phenyl)acetamide]",IC50,[2],> 10 µM
"Cc1ccccc1Cn1c(-c2ccc(CC(N)=O)cc2Cl)nc2c(OC3(C)CC3)ncnc21 [Example T101, 2-(3-chloro-4-(9-(2-methylbenzyl)-6-(1-methylcyclopropoxy)-9H-purin-8-yl)phenyl)acetamide]",IC50,[2],0.501 µM
"CC(CCOc1ccc(-c2nc3c(OC4(C)CC4)ncnc3n2Cc2ccccc2F)c(Cl)c1)C(=O)O (racemic) [Example U5, 4-(3-chloro-4-(9-(2-fluorobenzyl)-6-(1-methylcyclopropoxy)-9H-purin-8-yl)phenoxy)-2-methylbutanoic acid]",IC50,[4],0.316 µM
"Cc1ccnc(Cn2c(-c3ccc(OCC(=O)NC4(C)COC4)cc3Cl)nc3c(OC4(C)CC4)ncnc32)c1 [Example T476, 2-(3-chloro-4-(6-(1-methylcyclopropoxy)-9-((4-methylpyridin-2-yl)methyl)-9H-purin-8-yl)phenoxy)-N-(3-methyloxetan-3-yl)acetamide]",IC50,[5],0.251 µM
"Cc1ccnc(Cn2c(-c3ccc(N4CCNCC4)cc3Cl)nc3c(OC4(C)CC4)ncnc32)c1 [Example T235, 8-(2-chloro-4-(piperazin-1-yl)phenyl)-6-(1-methylcyclopropoxy)-9-((4-methylpyridin-2-yl)methyl)-9H-purine]",IC50,[6],0.398 µM
"CC(=O)NCCc1ccc(-c2nc3c(OC4(C)CC4)ncnc3n2Cc2cc(C)ccn2)c(Cl)c1 [Example T212, N-(3-chloro-4-(6-(1-methylcyclopropoxy)-9-((4-methylpyridin-2-yl)methyl)-9H-purin-8-yl)phenethyl)acetamide]",IC50,[6],0.398 µM
"CC(CCOc1ccc(-c2nc3c(OC4(C)CC4)ncnc3n2Cc2ccc(C#N)cc2)c(Cl)c1)C(=O)O (racemic) [Example U7, 4-(3-chloro-4-(9-(4-cyanobenzyl)-6-(1-methylcyclopropoxy)-9H-purin-8-yl)phenoxy)-2-methylbutanoic acid]",IC50,[4],2.51 µM
"CC(CCOc1ccc(-c2nc3c(OC4(C)CC4)ncnc3n2Cc2cccc(Cl)c2F)c(Cl)c1)C(=O)O (single isomer, unassigned) [Example T271, 4-(3-chloro-4-(9-(3-chloro-2-fluorobenzyl)-6-(1-methylcyclopropoxy)-9H-purin-8-yl)phenoxy)-2-methylbutanoic acid]",POLQ PD Prolif Lumin,"DLD-1 BRCA2-/- proliferation, column head only partly shown",6.4
"Cc1ccnc(Cn2c(-c3ccc(C(=O)N(C)CCC#N)cc3Cl)nc3c(OC4(C)CC4)ncnc32)c1 [Example T286, 3-chloro-N-(2-cyanoethyl)-N-methyl-4-(6-(1-methylcyclopropoxy)-9-((4-methylpyridin-2-yl)methyl)-9H-purin-8-yl)benzamide]",IC50,[6],1.26 µM
"CC(CCOc1ccc(-c2nc3c(OC4(C)CC4)ncnc3n2Cc2ccccc2C2CC2)c(Cl)c1)C(=O)O (single isomer, unassigned) [Example T599, 4-(3-chloro-4-(9-(2-cyclopropylbenzyl)-6-(1-methylcyclopropoxy)-9H-purin-8-yl)phenoxy)-2-methylbutanoic acid]",IC50,[1],0.631 µM
"CC(COc1ccc(-c2nc3c(OC4(C)CC4)ncnc3n2Cc2cc(Cl)ccc2F)c(Cl)c1)CC(=O)O (racemic) [Example U45, 4-(3-chloro-4-(9-(5-chloro-2-fluorobenzyl)-6-(1-methylcyclopropoxy)-9H-purin-8-yl)phenoxy)-3-methylbutanoic acid]",IC50,[4],0.0794 µM
"CC1(Oc2ncnc3c2nc(-c2cccc(OCCCCCCC(=O)O)c2Cl)n3Cc2cccc(Cl)c2)CC1 [Example T564, 7-(2-chloro-3-(9-(3-chlorobenzyl)-6-(1-methylcyclopropoxy)-9H-purin-8-yl)phenoxy)heptanoic acid]",IC50,[3],0.0316 µM
"Cc1ccnc(Cn2c(-c3ccc(C(=O)N4CC(N5CCCC5)C4)cc3Cl)nc3c(OC4(C)CC4)ncnc32)c1 [Example T602, (3-chloro-4-(6-(1-methylcyclopropoxy)-9-((4-methylpyridin-2-yl)methyl)-9H-purin-8-yl)phenyl)(3-(pyrrolidin-1-yl)azetidin-1-yl)methanone]",IC50,[1],1.26 µM
"CC(CCOc1ccc(-c2nc3c(OC4(C)CC4)ncnc3n2Cc2cc(F)cc(Cl)c2)c(Cl)c1)C(=O)O (single isomer, unassigned) [Example T272, 4-(3-chloro-4-(9-(3-chloro-5-fluorobenzyl)-6-(1-methylcyclopropoxy)-9H-purin-8-yl)phenoxy)-2-methylbutanoic acid]",IC50,[6],0.2 µM
"Cc1ccnc(Cn2c(-c3ccc(N4CCNC(=O)CC4)cc3Cl)nc3c(OC4(C)CC4)ncnc32)c1 [Example T339, 1-(3-chloro-4-(6-(1-methylcyclopropoxy)-9-((4-methylpyridin-2-yl)methyl)-9H-purin-8-yl)phenyl)-1,4-diazepan-5-one]",IC50,[7],0.501 µM
"CC(CCCc1ccc(-c2nc3c(OC4(C)CC4)ncnc3n2Cc2cccc(Cl)c2)c(Cl)c1)C(=O)O (racemic) [Example T434, 5-(3-chloro-4-(9-(3-chlorobenzyl)-6-(1-methylcyclopropoxy)-9H-purin-8-yl)phenyl)-2-methylpentanoic acid]",IC50,[5],0.158 µM
"COC(=O)NCCOc1ccc(-c2nc3c(OC4(C)CC4)ncnc3n2Cc2cc(C)ccn2)c(Cl)c1 [Example T228, methyl (2-(3-chloro-4-(6-(1-methylcyclopropoxy)-9-((4-methylpyridin-2-yl)methyl)-9H-purin-8-yl)phenoxy)ethyl)carbamate]",IC50,[6],0.126 µM
"Cc1ccnc(Cn2c(-c3ccc(C4CCNC4=O)cc3Cl)nc3c(OC4(C)CC4)ncnc32)c1 (racemic) [Example T176, 3-(3-chloro-4-(6-(1-methylcyclopropoxy)-9-((4-methylpyridin-2-yl)methyl)-9H-purin-8-yl)phenyl)pyrrolidin-2-one]",IC50,[3],0.794 µM
"C[C@@H](OCCOc1ccc(-c2nc3c(OC4(C)CC4)ncnc3n2Cc2cccc(Cl)c2)c(Cl)c1)C(=O)O [Example T306, (R)-2-(2-(3-chloro-4-(9-(3-chlorobenzyl)-6-(1-methylcyclopropoxy)-9H-purin-8-yl)phenoxy)ethoxy)propanoic acid]",IC50,[7],0.794 µM
"COc1ncc(Cl)cc1Cn1c(-c2ccc(OCCC(C)C(=O)O)cc2Cl)nc2c(OC3(C)CC3)ncnc21 (racemic) [Example U53, 4-(3-chloro-4-(9-((5-chloro-2-methoxypyridin-3-yl)methyl)-6-(1-methylcyclopropoxy)-9H-purin-8-yl)phenoxy)-2-methylbutanoic acid]",IC50,[4],0.316 µM
"Cc1ccnc(Cn2c(-c3ccc(C(=O)N(C)CCO)cc3Cl)nc3c(OC4(C)CC4)ncnc32)c1 [Example T220, 3-chloro-N-(2-hydroxyethyl)-N-methyl-4-(6-(1-methylcyclopropoxy)-9-((4-methylpyridin-2-yl)methyl)-9H-purin-8-yl)benzamide]",IC50,[6],3.16 µM
"CC1(Oc2ncnc3c2nc(-c2cccc(OCC(C)(C)C(=O)O)c2Cl)n3Cc2cccc(Cl)c2)CC1 [Example T298, 3-(2-chloro-3-(9-(3-chlorobenzyl)-6-(1-methylcyclopropoxy)-9H-purin-8-yl)phenoxy)-2,2-dimethylpropanoic acid]",IC50,[7],0.631 µM
"CC1(Oc2ncnc3c2nc(-c2ccc(CC(N)=O)cc2Cl)n3Cc2ccc(F)cc2)CC1 [Example T43, 2-(3-chloro-4-(9-(4-fluorobenzyl)-6-(1-methylcyclopropoxy)-9H-purin-8-yl)phenyl)acetamide]",IC50,[2],0.631 µM
"CC(CCOc1ccc(-c2nc3c(OC4(C)CC4)ncnc3n2Cc2cccc(C(F)(F)F)c2)c(Cl)c1)C(=O)O (single isomer, unassigned) [Example T396, 4-(3-chloro-4-(6-(1-methylcyclopropoxy)-9-(3-(trifluoromethyl)benzyl)-9H-purin-8-yl)phenoxy)-2-methylbutanoic acid]",IC50,[5],0.251 µM
"CCNC(=O)Cc1ccc(-c2nc3c(OC4(C)CC4)ncnc3n2Cc2cc(C)ccn2)c(Cl)c1 [Example T213, 2-(3-chloro-4-(6-(1-methylcyclopropoxy)-9-((4-methylpyridin-2-yl)methyl)-9H-purin-8-yl)phenyl)-N-ethylacetamide]",IC50,[6],0.251 µM
"Cc1nc(Cn2c(-c3ccc(CC(N)=O)cc3Cl)nc3c(OC4(C)CC4)ncnc32)cs1 [Example T6, 2-(3-chloro-4-(6-(1-methylcyclopropoxy)-9-((2-methylthiazol-4-yl)methyl)-9H-purin-8-yl)phenyl)acetamide]",IC50,[2],7.94 µM
